# Values of other authors as cited in patent US20200197416A1, “PHARMACEUTICAL COMPOSITION COMPRISING ABIRATERONE ACETATE AND DARULOTAMIDE” (NanGenex Nanotechnology Incorporated, priority 2017, published 2020).
# Where two headings read alike, the source gives them in different places.
# What was measured:
# [1] = not given; remark: listed apart in the source
# [2] = not given; remark: listed apart in the source
# [3] = for compound present in feces, % of the administered dose: oral 14C-abiraterone acetate
# [4] = system: serum testosterone and other androgens; settings: patients, placebo-controlled phase 3 clinical trial
# P-glycoprotein (P-gp) = P-glycoprotein (P-gp) (Homo sapiens, UniProt P08183)
# P-glycoprotein (P-gp), sequence (P08183 whole entry): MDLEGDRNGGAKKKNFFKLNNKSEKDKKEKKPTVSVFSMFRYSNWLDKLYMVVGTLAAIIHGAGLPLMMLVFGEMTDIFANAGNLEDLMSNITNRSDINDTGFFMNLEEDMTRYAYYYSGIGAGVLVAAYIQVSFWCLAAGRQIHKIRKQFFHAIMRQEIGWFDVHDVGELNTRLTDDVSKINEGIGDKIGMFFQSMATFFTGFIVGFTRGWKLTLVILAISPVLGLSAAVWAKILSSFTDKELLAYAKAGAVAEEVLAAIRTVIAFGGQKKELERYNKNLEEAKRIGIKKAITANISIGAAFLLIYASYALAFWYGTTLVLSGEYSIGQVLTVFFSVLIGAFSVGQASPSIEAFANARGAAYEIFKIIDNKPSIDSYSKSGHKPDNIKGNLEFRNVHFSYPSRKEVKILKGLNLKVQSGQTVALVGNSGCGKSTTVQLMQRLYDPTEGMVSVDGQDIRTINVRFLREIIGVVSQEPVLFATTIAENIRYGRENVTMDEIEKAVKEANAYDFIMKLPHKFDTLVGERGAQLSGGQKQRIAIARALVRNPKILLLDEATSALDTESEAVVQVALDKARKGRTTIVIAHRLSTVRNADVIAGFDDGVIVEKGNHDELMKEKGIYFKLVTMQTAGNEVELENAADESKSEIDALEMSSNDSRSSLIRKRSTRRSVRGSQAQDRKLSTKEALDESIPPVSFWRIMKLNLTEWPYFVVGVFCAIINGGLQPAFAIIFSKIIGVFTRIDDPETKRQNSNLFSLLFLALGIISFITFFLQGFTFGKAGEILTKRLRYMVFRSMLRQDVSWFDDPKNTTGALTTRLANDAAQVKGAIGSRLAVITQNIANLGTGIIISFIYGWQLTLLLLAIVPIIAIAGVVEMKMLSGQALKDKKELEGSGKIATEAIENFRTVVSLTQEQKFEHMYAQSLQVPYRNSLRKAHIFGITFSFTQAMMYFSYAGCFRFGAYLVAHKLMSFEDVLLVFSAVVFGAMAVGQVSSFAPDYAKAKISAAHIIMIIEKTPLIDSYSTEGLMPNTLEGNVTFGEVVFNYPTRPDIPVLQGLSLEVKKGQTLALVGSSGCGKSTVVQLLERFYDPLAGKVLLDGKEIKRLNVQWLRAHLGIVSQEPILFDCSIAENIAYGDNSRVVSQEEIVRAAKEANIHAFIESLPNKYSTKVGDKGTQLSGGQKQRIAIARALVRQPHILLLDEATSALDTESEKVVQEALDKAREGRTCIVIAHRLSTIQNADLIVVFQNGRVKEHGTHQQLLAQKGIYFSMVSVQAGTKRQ
# [5] = not given; remark: listed apart in the source
# [6] = system: human plasma proteins, albumin and alpha-1 acid glycoprotein
# AR = settings: preclinical trials
# [7] = in vivo
# PSA levels = settings: early phase clinical trials, Western mCRPC patients
# [8] = not given; remark: listed apart in the source
# [9] = for geometric mean Cmax,md / median tmax.md: day 7
# [10] = 1,000 mg daily, patients with metastatic CRPC
# [11] = high-fat (57% fat, 825 calories) meal
# [12] = low-fat meal (7% fat, 300 calories)
# [13] = single dose of Abiraterone acetate, up to
molecule,measurement,setting,value
"CC(=O)O[C@H]1CC[C@@]2(C)C(=CC[C@@H]3[C@@H]2CC[C@]2(C)C(c4cccnc4)=CC[C@@H]32)C1 [Abiraterone acetate, (3β)-17-(3-pyridinyl) androsta-5,16-dien-3-yl acetate]",solubility in water,,practically insoluble
same,pKa of the aromatic nitrogen,[1],5.19
same,Abiraterone acetate plasma concentrations,"[2]; clinical studies, below detectable levels in >99% of the analyzed samples",< 0.2 ng/mL
same,"compound present in feces, % of the administered dose",[3],approximately 55%
same,effect on serum testosterone and other androgens,[4],decreased
same,inhibition of P-gp,P-glycoprotein (P-gp); not told,inhibitor of P-gp
same,substrate of P-glycoprotein (P-gp),P-glycoprotein (P-gp); not told,not substrates
C[C@]12CC[C@H](O)CC1=CC[C@@H]1[C@@H]2CC[C@]2(C)C(c3cccnc3)=CC[C@@H]12 [Abiraterone],steady-state AUC (mean±SD),[2]; [10],993 ± 639 ng·h/mL
same,steady-state C. (mean±SD),[2]; [10],226 ± 178 ng/mL
same,increase in the mean AUC when dose doubled,"[2]; dose doubled from 1,000 to 2,000 mg",8%
same,apparent steady-state volume of distribution (mean±SD),"[2]; human, in vivo","19,669±13,358 L"
same,median time to reach maximum plasma Abiraterone concentrations,"[2]; oral Abiraterone acetate, patients with metastatic CRPC",2 h
same,mean terminal half-life of Abiraterone in plasma (mean±SD),[2]; patients with metastatic CRPC,12 ± 5 h
same,"accumulation: steady-state AUC compared to a single 1,000 mg dose","[2]; steady-state vs single 1,000 mg dose of Abiraterone acetate",2 fold
same,"Abiraterone AUC0-28, fold higher with food",[5]; [11],~10 fold
same,"Abiraterone Cmax, fold higher with food",[5]; [11],approximately 17 fold
same,"Abiraterone AUC0-28, fold higher with food",[5]; [12],~5 fold
same,"Abiraterone Cmax, fold higher with food",[5]; [12],approximately 7 fold
same,Abiraterone AUC0-28 (exposure) increase (food effect),[5]; [13],≤ 10 fold
same,Abiraterone Cmax increase (food effect),[5]; [13],up to 17 fold
same,bound to human plasma proteins,[6],> 99%
same,"compound present in feces, % of the administered dose",[3],~22%
same,substrate of P-glycoprotein (P-gp),"P-glycoprotein (P-gp); in vitro, clinically relevant concentrations",not substrates
CC(O)c1cc(C(=O)N[C@@H](C)Cn2ccc(-c3ccc(C#N)c(Cl)c3)n2)n[nH]1 (stereo partly drawn) [Darolutamide],binding affinity compared with other AR antagonists (such as bicalutamide and enzalutamide),AR,higher binding affinity
same,blood-brain barrier penetration,[7],negligible
same,PSA levels,PSA levels,significant reductions
same,Cmax after single dose under fed conditions,"[8]; 300 mg single dose, fed",2590 ng/mL
same,Cmax after single dose under fed conditions,"[8]; 600 mg single dose, fed",3500 ng/mL
same,AUC(0-t last) fed state compared with fasting state,[8]; after 300 and 600 mg,2.5 fold
same,bioavailability fed versus fasting conditions,[8]; single oral dose 300 mg,2.5 fold
same,bioavailability fed versus fasting conditions,[8]; single oral dose 600 mg,2.8 fold
same,overall median tmax,[8]; single-dose period,3 to 6 h
same,terminal half-life,[8]; single-dose period,10 to 15 h
same,"Cmax,md versus Cmax after single dose under fed conditions",[9]; 300 mg,approximately 1.8 times
same,geometric mean AUCtau(0-12)md,[9]; 300 mg BID,44400 ng·h/mL
same,mean linearity factor (RLIN),[9]; 300 mg BID,0.910
same,"geometric mean Cmax,md",[9]; 300 mg BID,4600 ng/mL
same,median tmax.md,[9]; 300 mg BID,4.98 h
same,"Cmax,md versus Cmax after single dose under fed conditions",[9]; 600 mg,~1.7 times
same,geometric mean AUCtau(0-12)md,[9]; 600 mg BID,58700 ng·h/mL
same,mean linearity factor (RLIN),[9]; 600 mg BID,0.961
same,"geometric mean Cmax,md",[9]; 600 mg BID,5800 ng/mL
same,median tmax.md,[9]; 600 mg BID,5.48 h
same,increase in exposure after multiple dosing with 600 mg BID versus 300 mg BID,[9]; in vivo,1.3 fold
C[C@]12CC[C@H](OS(=O)(=O)O)CC1=CC[C@@H]1[C@@H]2CC[C@]2(C)C(c3ccc[n+]([O-])c3)=CC[C@@H]12 [N-oxide Abiraterone sulphate],share of exposure of circulating metabolite in human plasma,[3]; oral 14C-abiraterone acetate as capsules,about 43%
CC(=O)c1cc(C(=O)N[C@@H](C)Cn2ccc(-c3ccc(C#N)c(Cl)c3)n2)[nH]n1 [keto-Darolutamide],exposure to metabolite keto-Darolutamide compared with Darolutamide,"[8]; single dose 300 mg, fasting",1.28 fold
same,exposure to metabolite keto-Darolutamide compared with Darolutamide,"[8]; single dose 300 mg, fed",1.33 fold
same,exposure to metabolite keto-Darolutamide compared with Darolutamide,"[8]; single dose 600 mg, fasting",1.44 fold
same,exposure to metabolite keto-Darolutamide compared with Darolutamide,"[8]; single dose 600 mg, fed",1.61 fold
"(3β)-17-(3-pyridinyl) androsta-5,16-dien-3-yl acetate [Abiraterone acetate]",radioactive dose recovered in feces,[3]; oral administration,approximately 88%
same,radioactive dose recovered in urine,[3]; oral administration,approximately 5%
